According to patent US6525001B1, “Substituted pyrimidine and pyridine herbicides” (Mid-American Commercialization Corporation, priority 1997, dated 2003):

Assays:
Format in all cases: in vivo
[1] = tested on: crabgrass (Digitaria sanguinalis); assay: Test B pre-/postemergence; design: key: 0 is no effect; 10 is complete control
Summary of the method: (§1)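 Scored visually 0 (none) to 10 (complete control) against untreated plants after twelve to sixteen greenhouse days. Test chemicals, formulated in surfactant-containing non-phytotoxic solvent, applied to soil after planting and, separately, onto 1- to 4-leaf (2–18 cm) plants.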

soybean (Glycine max) = assay: Test B pre-/postemergence; design: key: 0 is no effect; 10 is complete control
Summary of the method: as §1

[2] = tested on: purple nutsedge (Cyperus rotundus); assay: Test B pre-/postemergence; design: key: 0 is no effect; 10 is complete control
Summary of the method: as §1

[3] = tested on: sugar beet (Beta vulgaris); assay: Test B pre-/postemergence; design: key: 0 is no effect; 10 is complete control
Summary of the method: as §1

[4] = tested on: velvetleaf (Abutilon theophrasti); assay: Test B pre-/postemergence; design: key: 0 is no effect; 10 is complete control
Summary of the method: as §1

[5] = tested on: wheat (Triticum aestivum); assay: Test B pre-/postemergence; design: key: 0 is no effect; 10 is complete control
Summary of the method: as §1

rape (Brassica napus) = assay: Test B pre-/postemergence; design: key: 0 is no effect; 10 is complete control
Summary of the method: as §1

[6] = tested on: cocklebur (Xanthium strumarium); assay: Test B pre-/postemergence; design: key: 0 is no effect; 10 is complete control
Summary of the method: as §1

corn (Zea mays) = assay: Test B pre-/postemergence; design: key: 0 is no effect; 10 is complete control
Summary of the method: as §1

[7] = tested on: pigweed (Amaranthus retroflexus); assay: Test B pre-/postemergence; design: key: 0 is no effect; 10 is complete control
Summary of the method: as §1

[8] = tested on: blackgrass (Alopecurus myosuroides); assay: Test B pre-/postemergence; design: key: 0 is no effect; 10 is complete control
Summary of the method: as §1

rice (Oryza sativa) = assay: Test B flood test
Summary of the method: (§2)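 Flood test on plants grown to the 2-leaf stage; treated plants kept in greenhouse twelve to sixteen days, then visually rated against controls on a 0 (no effect) to 10 (complete control) scale.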

[9] = tested on: smallflower flatsedge (Cyperus difformis); assay: Test B flood test
Summary of the method: as §2

[10] = tested on: bamyardgrass (Echinochloa crus-galli); assay: Test B flood test
Summary of the method: as §2

[11] = tested on: duck salad (Heteranthera limosa); assay: Test B flood test
Summary of the method: as §2

[12] = Rate 62 g/ha, Postemergence (flood test)
[13] = Rate 125 g/ha, Postemergence section (flood test species)
[14] = Rate 250 g/ha, Postemergence (flood test species)

Cc1cnc(-n2cnc(C(F)(F)F)n2)nc1Cn1ccc(C(F)(F)F)n1 [Compound 51]
5: Plant response rating, Wheat ([5]; Rate 250 g/ha, Preemergence) | Rice plant response rating (rice (Oryza sativa); [13]) | Plant response rating, Barnyardgrass [10, 12]
3: Nutsedge plant response rating ([2]; Rate 62 g/ha, Preemergence) | Plant response rating, Wheat ([5]; Rate 125 g/ha, Preemergence) | Cocklebur plant response rating ([6]; Rate 62 g/ha, Preemergence) | Plant response rating, Rice (rice (Oryza sativa); [12])
4: Corn plant response rating (corn (Zea mays); Rate 62 g/ha, Preemergence)
6: Wheat plant response rating ([5]; Rate 62 g/ha, Postemergence) | Plant response rating, Cocklebur ([6]; Rate 62 g/ha, Postemergence) | Barnyardgrass plant response rating [10, 13]
10: Crabgrass plant response rating ([1]; Rate 62 g/ha, Preemergence) | Crabgrass plant response rating ([1]; Rate 125 g/ha, Postemergence) | Plant response rating, Crabgrass ([1]; Rate 125 g/ha, Preemergence) | Plant response rating, Crabgrass ([1]; Rate 250 g/ha, Postemergence) | Plant response rating, Crabgrass ([1]; Rate 250 g/ha, Preemergence) | Plant response rating, Soybean (soybean (Glycine max); Rate 250 g/ha, Postemergence) | Plant response rating, Sugarbeets ([3]; Rate 62 g/ha, Postemergence) | Sugarbeets plant response rating ([3]; Rate 62 g/ha, Preemergence) | Sugarbeets plant response rating ([3]; Rate 125 g/ha, Postemergence) | Plant response rating, Sugarbeets ([3]; Rate 125 g/ha, Preemergence) | Plant response rating, Sugarbeets ([3]; Rate 250 g/ha, Postemergence) | Plant response rating, Sugarbeets ([3]; Rate 250 g/ha, Preemergence) | Velvetleaf plant response rating ([4]; Rate 62 g/ha, Preemergence) | Plant response rating, Velvetleaf ([4]; Rate 125 g/ha, Preemergence) | Plant response rating, Velvetleaf ([4]; Rate 250 g/ha, Preemergence) | Rape plant response rating (rape (Brassica napus); Rate 62 g/ha, Preemergence) | Plant response rating, Rape (rape (Brassica napus); Rate 125 g/ha, Preemergence) | Plant response rating, Rape (rape (Brassica napus); Rate 250 g/ha, Postemergence) | Plant response rating, Rape (rape (Brassica napus); Rate 250 g/ha, Preemergence) | Plant response rating, Cocklebur ([6]; Rate 125 g/ha, Preemergence) | Plant response rating, Cocklebur ([6]; Rate 250 g/ha, Preemergence) | Plant response rating, Redroot pigweed ([7]; Rate 62 g/ha, Postemergence) | Redroot pigweed plant response rating ([7]; Rate 62 g/ha, Preemergence) | Redroot pigweed plant response rating ([7]; Rate 125 g/ha, Postemergence) | Plant response rating, Redroot pigweed ([7]; Rate 125 g/ha, Preemergence) | Plant response rating, Redroot pigweed ([7]; Rate 250 g/ha, Postemergence) | Plant response rating, Redroot pigweed ([7]; Rate 250 g/ha, Preemergence) | Plant response rating, Blackgrass ([8]; Rate 250 g/ha, Preemergence)
8: Velvetleaf plant response rating ([4]; Rate 125 g/ha, Postemergence) | Corn plant response rating (corn (Zea mays); Rate 125 g/ha, Postemergence) | Plant response rating, Corn (corn (Zea mays); Rate 125 g/ha, Preemergence) | Plant response rating, Corn (corn (Zea mays); Rate 250 g/ha, Preemergence) | Plant response rating, Rice (rice (Oryza sativa); [14]) | Plant response rating, Ducksalad [11, 12]
9: Plant response rating, Crabgrass ([1]; Rate 62 g/ha, Postemergence) | Plant response rating, Soybean (soybean (Glycine max); Rate 62 g/ha, Postemergence) | Soybean plant response rating (soybean (Glycine max); Rate 62 g/ha, Preemergence) | Soybean plant response rating (soybean (Glycine max); Rate 125 g/ha, Postemergence) | Plant response rating, Soybean (soybean (Glycine max); Rate 125 g/ha, Preemergence) | Plant response rating, Soybean (soybean (Glycine max); Rate 250 g/ha, Preemergence) | Plant response rating, Nutsedge ([2]; Rate 125 g/ha, Preemergence) | Plant response rating, Velvetleaf ([4]; Rate 250 g/ha, Postemergence) | Wheat plant response rating ([5]; Rate 125 g/ha, Postemergence) | Plant response rating, Wheat ([5]; Rate 250 g/ha, Postemergence) | Plant response rating, Rape (rape (Brassica napus); Rate 62 g/ha, Postemergence) | Rape plant response rating (rape (Brassica napus); Rate 125 g/ha, Postemergence) | Cocklebur plant response rating ([6]; Rate 125 g/ha, Postemergence) | Plant response rating, Cocklebur ([6]; Rate 250 g/ha, Postemergence) | Plant response rating, Corn (corn (Zea mays); Rate 250 g/ha, Postemergence) | Blackgrass plant response rating ([8]; Rate 125 g/ha, Postemergence) | Plant response rating, Blackgrass ([8]; Rate 125 g/ha, Preemergence) | Plant response rating, Blackgrass ([8]; Rate 250 g/ha, Postemergence) | Plant response rating, S. Flatsedge [9, 12] | S. Flatsedge plant response rating [9, 13] | Plant response rating, S. Flatsedge [9, 14] | Ducksalad plant response rating [11, 13] | Plant response rating, Ducksalad [11, 14]
7: Plant response rating, Nutsedge ([2]; Rate 62 g/ha, Postemergence) | Plant response rating, Velvetleaf ([4]; Rate 62 g/ha, Postemergence) | Plant response rating, Corn (corn (Zea mays); Rate 62 g/ha, Postemergence) | Plant response rating, Blackgrass ([8]; Rate 62 g/ha, Postemergence) | Blackgrass plant response rating ([8]; Rate 62 g/ha, Preemergence) | Plant response rating, Barnyardgrass [10, 14]
0: Wheat plant response rating ([5]; Rate 62 g/ha, Preemergence)
